In PubChem BioAssay AID1845219 (Molecular Pharmacology Branch, DTP, NCI, 2023):
“And” between values parts separate entries of the source, which are not always exact repeats. Equal values may be shown once.

Test system: SYO-1 tumor spheroids, viability % test/control
Experiment: Anticancer human tumor SYO-1 cell line growth inhibition;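 also: spheroids exposed to agents for 7 days before viability read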;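 as to viability, T/C: 100% = DMSO vehicle control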
Conditions: spheroids with HUVEC and MSC; for viability, T/C: stronger effect = lower value
Method in brief: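 Complex tumor spheroids combined malignant cells with endothelial cells and mesenchymal stem cells. DNA-damaging drugs and DNA repair inhibitors were tested alone and in combination, at half-log dilutions down from clinical Cmax (top 10 microM if Cmax unknown), 0.25% DMSO final.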

[1] = curve of first compound, second compound 0.003 µM
[2] = curve of first compound, second compound 0.00949 µM
[3] = curve of first compound, second compound 0.03 µM
[4] = curve of first compound, second compound 0.0949 µM
[5] = curve of first compound, second compound 0.3 µM
[6] = second compound 0.003 µM, first compound 0.0316 µM
[7] = second compound 0.003 µM, first compound 0.1 µM
[8] = second compound 0.003 µM, first compound 0.316 µM
[9] = second compound 0.003 µM, first compound 1 µM
[10] = second compound 0.003 µM, first compound 3.16 µM
[11] = second compound 0.003 µM, first compound 10 µM
[12] = second compound 0.00949 µM, first compound 0.0316 µM
[13] = second compound 0.00949 µM, first compound 0.1 µM
[14] = second compound 0.00949 µM, first compound 0.316 µM
[15] = second compound 0.00949 µM, first compound 1 µM
[16] = second compound 0.00949 µM, first compound 3.16 µM
[17] = second compound 0.00949 µM, first compound 10 µM
[18] = second compound 0.03 µM, first compound 0.0316 µM
[19] = second compound 0.03 µM, first compound 0.1 µM
[20] = second compound 0.03 µM, first compound 0.316 µM
[21] = second compound 0.03 µM, first compound 1 µM
[22] = second compound 0.03 µM, first compound 3.16 µM
[23] = second compound 0.03 µM, first compound 10 µM
[24] = second compound 0.0949 µM, first compound 0.0316 µM
[25] = second compound 0.0949 µM, first compound 0.1 µM
[26] = second compound 0.0949 µM, first compound 0.316 µM
[27] = second compound 0.0949 µM, first compound 1 µM
[28] = second compound 0.0949 µM, first compound 3.16 µM
[29] = second compound 0.0949 µM, first compound 10 µM
[30] = second compound 0.3 µM, first compound 0.0316 µM
[31] = second compound 0.3 µM, first compound 0.1 µM
[32] = second compound 0.3 µM, first compound 0.316 µM
[33] = second compound 0.3 µM, first compound 1 µM
[34] = second compound 0.3 µM, first compound 3.16 µM
[35] = second compound 0.3 µM, first compound 10 µM

COc1cc(C)[nH]c(=O)c1CN1CCc2c(Cl)cc(C(OC)C3COC3)c(Cl)c2C1=O (stereo not given) + CC[C@@]1(O)C(=O)OCc2c1cc1n(c2=O)Cc2cc3c(CN(C)C)c(O)ccc3nc2-1
IC50 [1]: 0.777 µM
IC50 [2]: < 0.0316 µM
IC50 [3]: < 0.0316 µM
IC50 [4]: < 0.0316 µM
IC50 [5]: < 0.0316 µM
viability, T/C [6]: 99.8%
viability, T/C [7]: 96.1%
viability, T/C [8]: 71.5%
viability, T/C [9]: 44.5%
viability, T/C [10]: 33.9%
viability, T/C [11]: 32.8%
viability, T/C [12]: 22.7%
viability, T/C [13]: 18.1%
viability, T/C [14]: 8.42%
viability, T/C [15]: 5.82%
viability, T/C [16]: 5.77%
viability, T/C [17]: 4.94%
viability, T/C [18]: 1.81%
viability, T/C [19]: 2.29%
viability, T/C [20]: 2.26%
viability, T/C [21]: 2.14%
viability, T/C [22]: 2.28%
viability, T/C [23]: 2.42%
viability, T/C [24]: 1.63%
viability, T/C [25]: 1.59%
viability, T/C [26]: 1.59%
viability, T/C [27]: 1.68%
viability, T/C [28]: 1.72%
viability, T/C [29]: 1.9%
viability, T/C [30]: 2%
viability, T/C [31]: 2.17%
viability, T/C [32]: 2.06%
viability, T/C [33]: 1.88%
viability, T/C [34]: 1.89%
viability, T/C [35]: 2.12%

CC(C)n1c(=O)n(C)c2cnc3cc(F)c(-c4ccc(OCCCN5CCCCC5)nc4)cc3c21 + Cn1nnc2c(C(N)=O)ncn2c1=O
IC50 (curve of first compound, second compound 1 µM): > 10 µM
IC50 (curve of first compound, second compound 3.16 µM): > 10 µM
IC50 (curve of first compound, second compound 10 µM): 9.26 µM
IC50 (curve of first compound, second compound 31.6 µM): 7.88 µM
IC50 (curve of first compound, second compound 100 µM): > 10 µM
viability, T/C (second compound 1 µM, first compound 0.0316 µM): 100%
viability, T/C (second compound 1 µM, first compound 0.1 µM): 101%
viability, T/C (second compound 1 µM, first compound 0.316 µM): 103%
viability, T/C (second compound 1 µM, first compound 1 µM): 103%
viability, T/C (second compound 1 µM, first compound 3.16 µM): 101%
viability, T/C (second compound 1 µM, first compound 10 µM): 59.1%
viability, T/C (second compound 3.16 µM, first compound 0.0316 µM): 105%
viability, T/C (second compound 3.16 µM, first compound 0.1 µM): 104%
viability, T/C (second compound 3.16 µM, first compound 0.316 µM): 106%
viability, T/C (second compound 3.16 µM, first compound 1 µM): 104%
viability, T/C (second compound 3.16 µM, first compound 3.16 µM): 103%
viability, T/C (second compound 3.16 µM, first compound 10 µM): 52%
viability, T/C (second compound 10 µM, first compound 0.0316 µM): 105%
viability, T/C (second compound 10 µM, first compound 0.1 µM): 100%
viability, T/C (second compound 10 µM, first compound 0.316 µM): 103%
viability, T/C (second compound 10 µM, first compound 1 µM): 108%
viability, T/C (second compound 10 µM, first compound 3.16 µM): 102%
viability, T/C (second compound 10 µM, first compound 10 µM): 46.3%
viability, T/C (second compound 31.6 µM, first compound 0.0316 µM): 106%
viability, T/C (second compound 31.6 µM, first compound 0.1 µM): 113%
viability, T/C (second compound 31.6 µM, first compound 0.316 µM): 106%
viability, T/C (second compound 31.6 µM, first compound 1 µM): 115%
viability, T/C (second compound 31.6 µM, first compound 3.16 µM): 104%
viability, T/C (second compound 31.6 µM, first compound 10 µM): 35.8%
viability, T/C (second compound 100 µM, first compound 0.0316 µM): 108%
viability, T/C (second compound 100 µM, first compound 0.1 µM): 112%
viability, T/C (second compound 100 µM, first compound 0.316 µM): 106%
viability, T/C (second compound 100 µM, first compound 1 µM): 96.2%
viability, T/C (second compound 100 µM, first compound 3.16 µM): 103%
viability, T/C (second compound 100 µM, first compound 10 µM): 73%

CC(C)n1c(=O)n(C)c2cnc3cc(F)c(-c4ccc(OCCCN5CCCCC5)nc4)cc3c21 + CC[C@@]1(O)C(=O)OCc2c1cc1n(c2=O)Cc2cc3c(CN(C)C)c(O)ccc3nc2-1
IC50 [1]: < 0.0316 µM
IC50 [2]: < 0.0316 µM
IC50 [3]: < 0.0316 µM
IC50 [4]: < 0.0316 µM
IC50 [5]: < 0.0316 µM
viability, T/C [6]: 7.3%
viability, T/C [7]: 7.98%
viability, T/C [8]: 8.08%
viability, T/C [9]: 5.73%
viability, T/C [10]: 1.45%
viability, T/C [11]: 0.47%
viability, T/C [12]: 2.88%
viability, T/C [13]: 3.1%
viability, T/C [14]: 2.8%
viability, T/C [15]: 2.56%
viability, T/C [16]: 1.27%
viability, T/C [17]: 0.3%
viability, T/C [18]: 2.53%
viability, T/C [19]: 2.44%
viability, T/C [20]: 2.23%
viability, T/C [21]: 2.14%
viability, T/C [22]: 1.02%
viability, T/C [23]: 0.26%
viability, T/C [24]: 1.61%
viability, T/C [25]: 1.69%
viability, T/C [26]: 1.67%
viability, T/C [27]: 1.34%
viability, T/C [28]: 1.18%
viability, T/C [29]: 0.25%
viability, T/C [30]: 1.48%
viability, T/C [31]: 1.31%
viability, T/C [32]: 1.3%
viability, T/C [33]: 1.31%
viability, T/C [34]: 0.93%
viability, T/C [35]: 0.28%

Cn1nnc2c(C(N)=O)ncn2c1=O
viability, T/C (compound 1 µM): 102% [middle of 9 runs]
viability, T/C (compound 3.16 µM): 98.2% [middle of 10 runs]
viability, T/C (compound 10 µM): 100% [middle of 10 runs]
viability, T/C (compound 31.6 µM): 106% [middle of 10 runs]
IC50 (compound alone, run of 12/02/2019): > 100 µM and 88.3 µM
